Test results: the kinase profiling compilation of Christmann-Franck et al. (2016)

What was measured:
Assay in all cases: KINOMEscan competition binding
Settings in all cases: compound 10.0 µM
CHEK2 (human) = CHEK2 (human) (UniProt O96017)
SNRK (human) = SNRK (human) (UniProt Q9NRH2)
MAPK9 (human) = MAPK9 (human) (UniProt P45984)
YSK4 (human) = YSK4 (human) (UniProt Q56UN5)
IRAK1 (human) = IRAK1 (human) (UniProt P51617)
CLK2 (human) = CLK2 (human) (UniProt P49760)
DSTYK (human) = DSTYK (human) (UniProt Q6XUX3)
PDGFRA (human) = PDGFRA (human) (UniProt P16234)
STK3 (human) = STK3 (human) (UniProt Q13188)
RPS6KA3 KD1 (human) = RPS6KA3 KD1 (human) (UniProt P51812)
CDK8 (human) = CDK8 (human) (UniProt P49336)
[1] = tested on: RET (human), P07949 [V804M]
ROCK2 (human) = ROCK2 (human) (UniProt O75116)
CDK13 (human) = CDK13 (human) (UniProt Q14004)
FGR (human) = FGR (human) (UniProt P09769)
HIPK2 (human) = HIPK2 (human) (UniProt Q9H2X6)
MET (human) = MET (human) (UniProt P08581)
TGFBR2 (human) = TGFBR2 (human) (UniProt P37173)
STK38L (human) = STK38L (human) (UniProt Q9Y2H1)
IRAK4 (human) = IRAK4 (human) (UniProt Q9NWZ3)
RAF1 (human) = RAF1 (human) (UniProt P04049)
MYLK4 (human) = MYLK4 (human) (UniProt Q86YV6)
MAP2K3 (human) = MAP2K3 (human) (UniProt P46734)
CDK19 (human) = CDK19 (human) (UniProt Q9BWU1)
SRPK3 (human) = SRPK3 (human) (UniProt Q9UPE1)
ULK1 (human) = ULK1 (human) (UniProt O75385)
STK25 (human) = STK25 (human) (UniProt O00506)
CRK2 (P.falciparum) = CRK2 (P.falciparum) (UniProt P61075)
MAP3K15 (human) = MAP3K15 (human) (UniProt Q6ZN16)
RPS6KA5 KD2 (human) = RPS6KA5 KD2 (human) (UniProt O75582)
PDPK1 (human) = PDPK1 (human) (UniProt O15530)
RIPK2 (human) = RIPK2 (human) (UniProt O43353)
SRMS (human) = SRMS (human) (UniProt Q9H3Y6)
WEE1 (human) = WEE1 (human) (UniProt P30291)
PKN2 (human) = PKN2 (human) (UniProt Q16513)
SRPK2 (human) = SRPK2 (human) (UniProt P78362)
[2] = tested on: KIT (human), P10721 [V559D/V654A]
[3] = tested on: EGFR (human), P00533 [T790M/L858R]
NEK3 (human) = NEK3 (human) (UniProt P51956)
LCK (human) = LCK (human) (UniProt P06239)

STK25 (human), sequence (O00506 whole entry, looked up): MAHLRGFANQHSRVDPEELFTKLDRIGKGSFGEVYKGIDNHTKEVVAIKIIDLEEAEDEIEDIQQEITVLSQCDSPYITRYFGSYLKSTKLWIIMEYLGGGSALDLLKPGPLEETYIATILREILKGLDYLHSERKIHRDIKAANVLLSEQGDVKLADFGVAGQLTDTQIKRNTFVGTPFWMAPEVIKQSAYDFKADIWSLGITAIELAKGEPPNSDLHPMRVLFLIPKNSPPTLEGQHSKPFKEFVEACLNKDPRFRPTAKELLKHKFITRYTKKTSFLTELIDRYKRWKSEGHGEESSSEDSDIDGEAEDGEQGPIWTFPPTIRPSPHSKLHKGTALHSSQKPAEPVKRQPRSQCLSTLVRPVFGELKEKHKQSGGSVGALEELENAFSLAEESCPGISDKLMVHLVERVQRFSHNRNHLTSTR
RAF1 (human), sequence (P04049 whole entry, looked up): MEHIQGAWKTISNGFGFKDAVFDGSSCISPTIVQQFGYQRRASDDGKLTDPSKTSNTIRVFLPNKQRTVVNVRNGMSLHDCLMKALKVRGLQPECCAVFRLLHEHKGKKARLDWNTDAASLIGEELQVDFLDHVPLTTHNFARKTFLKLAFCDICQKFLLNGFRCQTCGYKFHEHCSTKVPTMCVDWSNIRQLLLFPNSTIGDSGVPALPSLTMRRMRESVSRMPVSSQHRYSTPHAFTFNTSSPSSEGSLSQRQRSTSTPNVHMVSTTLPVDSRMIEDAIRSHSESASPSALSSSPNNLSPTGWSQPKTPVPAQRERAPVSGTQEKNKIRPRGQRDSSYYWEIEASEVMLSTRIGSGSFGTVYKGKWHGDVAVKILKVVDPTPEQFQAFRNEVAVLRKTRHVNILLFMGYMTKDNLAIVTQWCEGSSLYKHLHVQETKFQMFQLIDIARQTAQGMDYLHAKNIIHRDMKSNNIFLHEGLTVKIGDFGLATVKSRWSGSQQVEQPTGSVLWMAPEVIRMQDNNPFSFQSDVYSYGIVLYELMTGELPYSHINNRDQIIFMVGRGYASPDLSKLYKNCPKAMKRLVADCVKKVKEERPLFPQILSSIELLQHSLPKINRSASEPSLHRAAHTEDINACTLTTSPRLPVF
SNRK (human), sequence (Q9NRH2 whole entry, looked up): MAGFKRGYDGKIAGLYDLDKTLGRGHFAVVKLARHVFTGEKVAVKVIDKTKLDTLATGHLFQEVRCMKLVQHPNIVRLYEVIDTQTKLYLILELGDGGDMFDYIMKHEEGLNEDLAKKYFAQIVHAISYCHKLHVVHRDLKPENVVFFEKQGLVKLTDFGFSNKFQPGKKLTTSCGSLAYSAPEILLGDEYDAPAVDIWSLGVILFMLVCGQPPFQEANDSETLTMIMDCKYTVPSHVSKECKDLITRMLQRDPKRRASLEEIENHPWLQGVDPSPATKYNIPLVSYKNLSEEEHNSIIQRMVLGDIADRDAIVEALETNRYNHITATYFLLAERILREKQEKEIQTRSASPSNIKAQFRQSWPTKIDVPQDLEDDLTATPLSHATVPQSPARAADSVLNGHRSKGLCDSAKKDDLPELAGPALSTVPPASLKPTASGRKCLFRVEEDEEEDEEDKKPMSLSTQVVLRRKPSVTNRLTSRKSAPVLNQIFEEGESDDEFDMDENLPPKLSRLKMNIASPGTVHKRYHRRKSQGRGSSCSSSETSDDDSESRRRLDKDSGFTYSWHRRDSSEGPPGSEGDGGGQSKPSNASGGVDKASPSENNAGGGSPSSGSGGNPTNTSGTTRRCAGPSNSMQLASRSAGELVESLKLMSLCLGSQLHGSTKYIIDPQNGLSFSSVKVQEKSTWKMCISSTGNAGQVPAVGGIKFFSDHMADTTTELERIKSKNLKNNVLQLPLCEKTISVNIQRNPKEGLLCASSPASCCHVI
DSTYK (human), sequence (Q6XUX3 whole entry, looked up): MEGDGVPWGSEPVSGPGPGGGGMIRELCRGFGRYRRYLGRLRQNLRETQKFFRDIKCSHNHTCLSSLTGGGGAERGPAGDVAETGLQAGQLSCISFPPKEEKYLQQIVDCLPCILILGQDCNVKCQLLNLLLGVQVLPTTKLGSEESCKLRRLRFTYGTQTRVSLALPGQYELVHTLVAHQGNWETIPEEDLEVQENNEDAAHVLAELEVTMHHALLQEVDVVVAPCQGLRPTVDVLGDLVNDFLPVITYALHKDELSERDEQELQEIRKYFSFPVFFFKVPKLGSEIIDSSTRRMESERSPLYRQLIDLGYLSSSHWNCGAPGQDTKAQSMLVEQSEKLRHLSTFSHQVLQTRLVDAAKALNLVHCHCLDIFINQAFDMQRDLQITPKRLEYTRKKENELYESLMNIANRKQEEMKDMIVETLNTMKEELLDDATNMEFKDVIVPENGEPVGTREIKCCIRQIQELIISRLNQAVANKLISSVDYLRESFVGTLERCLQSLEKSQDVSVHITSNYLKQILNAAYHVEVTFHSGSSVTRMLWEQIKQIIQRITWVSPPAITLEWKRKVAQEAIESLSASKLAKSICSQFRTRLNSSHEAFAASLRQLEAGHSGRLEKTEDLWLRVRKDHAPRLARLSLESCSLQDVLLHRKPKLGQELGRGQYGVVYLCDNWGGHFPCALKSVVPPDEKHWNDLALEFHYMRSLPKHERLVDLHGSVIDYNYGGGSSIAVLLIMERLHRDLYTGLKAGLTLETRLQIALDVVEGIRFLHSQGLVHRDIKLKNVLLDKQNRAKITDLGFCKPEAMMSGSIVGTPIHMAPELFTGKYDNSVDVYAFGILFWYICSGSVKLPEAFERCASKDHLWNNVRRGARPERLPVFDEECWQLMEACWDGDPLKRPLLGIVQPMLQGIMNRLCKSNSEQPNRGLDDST
KIT (human), P10721 [V559D/V654A], sequence (P10721 whole entry V559D/V654A, looked up): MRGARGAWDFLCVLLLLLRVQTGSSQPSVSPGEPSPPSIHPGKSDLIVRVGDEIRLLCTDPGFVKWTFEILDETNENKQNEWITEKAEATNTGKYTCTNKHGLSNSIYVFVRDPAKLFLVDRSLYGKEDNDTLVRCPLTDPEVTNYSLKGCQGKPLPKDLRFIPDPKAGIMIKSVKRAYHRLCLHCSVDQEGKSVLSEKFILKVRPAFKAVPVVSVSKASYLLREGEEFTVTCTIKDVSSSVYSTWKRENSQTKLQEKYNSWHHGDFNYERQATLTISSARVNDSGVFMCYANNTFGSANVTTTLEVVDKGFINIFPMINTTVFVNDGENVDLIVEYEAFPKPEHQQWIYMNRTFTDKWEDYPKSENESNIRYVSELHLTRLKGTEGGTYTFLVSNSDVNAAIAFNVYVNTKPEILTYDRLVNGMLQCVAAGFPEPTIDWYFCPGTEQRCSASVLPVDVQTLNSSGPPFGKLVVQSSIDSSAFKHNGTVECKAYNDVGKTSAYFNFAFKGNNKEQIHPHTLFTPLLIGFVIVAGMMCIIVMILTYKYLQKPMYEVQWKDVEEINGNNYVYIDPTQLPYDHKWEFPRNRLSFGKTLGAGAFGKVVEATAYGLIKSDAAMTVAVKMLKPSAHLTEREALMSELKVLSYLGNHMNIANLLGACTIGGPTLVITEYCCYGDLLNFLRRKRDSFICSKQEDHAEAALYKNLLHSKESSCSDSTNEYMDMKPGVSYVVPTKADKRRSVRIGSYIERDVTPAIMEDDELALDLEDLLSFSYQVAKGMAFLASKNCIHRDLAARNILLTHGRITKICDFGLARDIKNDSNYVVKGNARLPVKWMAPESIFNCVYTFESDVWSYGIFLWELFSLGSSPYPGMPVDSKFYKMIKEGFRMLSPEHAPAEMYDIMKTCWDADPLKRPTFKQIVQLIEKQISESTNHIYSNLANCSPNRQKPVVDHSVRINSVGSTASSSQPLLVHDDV
RPS6KA5 KD2 (human), sequence (O75582 whole entry, looked up): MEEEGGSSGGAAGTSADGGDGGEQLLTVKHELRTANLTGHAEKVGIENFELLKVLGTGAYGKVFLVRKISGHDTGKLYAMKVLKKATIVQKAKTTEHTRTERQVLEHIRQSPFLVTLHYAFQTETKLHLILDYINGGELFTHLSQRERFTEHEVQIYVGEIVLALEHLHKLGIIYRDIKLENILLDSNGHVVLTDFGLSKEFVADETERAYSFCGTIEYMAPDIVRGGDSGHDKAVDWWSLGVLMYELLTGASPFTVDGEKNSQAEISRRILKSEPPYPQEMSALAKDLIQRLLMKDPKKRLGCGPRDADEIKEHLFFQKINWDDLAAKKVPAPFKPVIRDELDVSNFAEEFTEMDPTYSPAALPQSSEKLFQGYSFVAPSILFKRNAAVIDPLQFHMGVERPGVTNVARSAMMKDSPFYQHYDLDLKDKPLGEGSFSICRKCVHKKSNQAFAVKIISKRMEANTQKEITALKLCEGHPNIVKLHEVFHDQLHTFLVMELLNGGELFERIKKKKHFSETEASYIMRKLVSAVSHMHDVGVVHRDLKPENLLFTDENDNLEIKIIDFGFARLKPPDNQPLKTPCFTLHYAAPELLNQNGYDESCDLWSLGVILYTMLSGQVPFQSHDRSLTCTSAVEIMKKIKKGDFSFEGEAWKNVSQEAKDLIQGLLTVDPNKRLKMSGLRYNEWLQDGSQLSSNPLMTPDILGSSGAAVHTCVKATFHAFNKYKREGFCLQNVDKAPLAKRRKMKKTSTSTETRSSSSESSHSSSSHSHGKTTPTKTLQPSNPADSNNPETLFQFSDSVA
CLK2 (human), sequence (P49760 whole entry, looked up): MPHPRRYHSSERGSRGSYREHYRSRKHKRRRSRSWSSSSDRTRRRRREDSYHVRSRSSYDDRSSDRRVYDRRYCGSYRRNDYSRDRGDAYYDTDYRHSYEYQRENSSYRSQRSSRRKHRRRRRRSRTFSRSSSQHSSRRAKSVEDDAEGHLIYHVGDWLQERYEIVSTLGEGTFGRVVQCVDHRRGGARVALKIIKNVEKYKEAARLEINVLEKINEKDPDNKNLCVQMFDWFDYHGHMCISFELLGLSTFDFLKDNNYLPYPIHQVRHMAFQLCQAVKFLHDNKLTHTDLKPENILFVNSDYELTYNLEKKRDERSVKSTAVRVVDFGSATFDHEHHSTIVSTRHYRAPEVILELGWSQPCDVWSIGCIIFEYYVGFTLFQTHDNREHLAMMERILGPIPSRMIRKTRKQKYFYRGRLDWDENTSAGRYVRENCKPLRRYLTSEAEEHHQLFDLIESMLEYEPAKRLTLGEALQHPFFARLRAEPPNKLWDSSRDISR

Compound O=C(Nc1cccc(Nc2ncc(Br)c(NCCc3cnc[nH]3)n2)c1)N1CCCC1 has a kinase still bound, per cent of control (CHEK2 (human)) of 24%, a kinase still bound, per cent of control (SNRK (human)) of 100% and a kinase still bound, per cent of control (MAPK9 (human)) of 0.3%. The kinase still bound, per cent of control (YSK4 (human)) was 0%, the kinase still bound, per cent of control (IRAK1 (human)) was 0.25% and the kinase still bound, per cent of control (CLK2 (human)) was 2.2%. It also gave a kinase still bound, per cent of control (DSTYK (human)) of 36%, a kinase still bound, per cent of control (PDGFRA (human)) of 0.1% and a kinase still bound, per cent of control (STK3 (human)) of 0.45%. It also gave a kinase still bound, per cent of control (RPS6KA3 KD1 (human)) of 0.5%, a kinase still bound, per cent of control (CDK8 (human)) of 97% and a kinase still bound, per cent of control [1] of 0.05%. It also gave a kinase still bound, per cent of control (ROCK2 (human)) of 0.55%, a kinase still bound, per cent of control (CDK13 (human)) of 0.35% and a kinase still bound, per cent of control (FGR (human)) of 13%. The kinase still bound, per cent of control (HIPK2 (human)) was 1.6%, the kinase still bound, per cent of control (MET (human)) was 4.4% and the kinase still bound, per cent of control (TGFBR2 (human)) was 100%. It also gave a kinase still bound, per cent of control (STK38L (human)) of 69%, a kinase still bound, per cent of control (IRAK4 (human)) of 0% and a kinase still bound, per cent of control (RAF1 (human)) of 100%. For the same compound, the kinase still bound, per cent of control (MYLK4 (human)) was 6.8%, the kinase still bound, per cent of control (MAP2K3 (human)) was 23% and the kinase still bound, per cent of control (CDK19 (human)) was 100%. The kinase still bound, per cent of control (SRPK3 (human)) was 6.2%, the kinase still bound, per cent of control (ULK1 (human)) was 0.05% and the kinase still bound, per cent of control (STK25 (human)) was 30%. The kinase still bound, per cent of control (CRK2 (P.falciparum)) was 100%, the kinase still bound, per cent of control (MAP3K15 (human)) was 50% and the kinase still bound, per cent of control (RPS6KA5 KD2 (human)) was 31%. The kinase still bound, per cent of control (PDPK1 (human)) was 2.4%, the kinase still bound, per cent of control (RIPK2 (human)) was 58% and the kinase still bound, per cent of control (SRMS (human)) was 37%. For the same compound, the kinase still bound, per cent of control (WEE1 (human)) was 52%, the kinase still bound, per cent of control (PKN2 (human)) was 4.6% and the kinase still bound, per cent of control (SRPK2 (human)) was 5.4%. The kinase still bound, per cent of control [2] was 15%, the kinase still bound, per cent of control [3] was 26% and the kinase still bound, per cent of control (NEK3 (human)) was 6.8%. For the same compound, the kinase still bound, per cent of control (LCK (human)) was 3.4%.

COc1ccc(N(C(=O)Oc2c(C)cccc2C)c2ccnc(Nc3ccc(N4CCN(C)CC4)cc3)n2)c(OC)c1 was tested, and the kinase still bound, per cent of control (CHEK2 (human)) was 78%, the kinase still bound, per cent of control (SNRK (human)) was 100% and the kinase still bound, per cent of control (MAPK9 (human)) was 2.6%. The kinase still bound, per cent of control (YSK4 (human)) was 6%, the kinase still bound, per cent of control (IRAK1 (human)) was 19% and the kinase still bound, per cent of control (CLK2 (human)) was 78%. It also gave a kinase still bound, per cent of control (DSTYK (human)) of 49%, a kinase still bound, per cent of control (PDGFRA (human)) of 9.9% and a kinase still bound, per cent of control (STK3 (human)) of 23%. It also gave a kinase still bound, per cent of control (RPS6KA3 KD1 (human)) of 37%, a kinase still bound, per cent of control (CDK8 (human)) of 100% and a kinase still bound, per cent of control [1] of 66%. It also gave a kinase still bound, per cent of control (ROCK2 (human)) of 88%, a kinase still bound, per cent of control (CDK13 (human)) of 100% and a kinase still bound, per cent of control (FGR (human)) of 0.15%. The kinase still bound, per cent of control (HIPK2 (human)) was 100%, the kinase still bound, per cent of control (MET (human)) was 3.9% and the kinase still bound, per cent of control (TGFBR2 (human)) was 16%. The kinase still bound, per cent of control (STK38L (human)) was 100%, the kinase still bound, per cent of control (IRAK4 (human)) was 100% and the kinase still bound, per cent of control (RAF1 (human)) was 95%. It also gave a kinase still bound, per cent of control (MYLK4 (human)) of 100%, a kinase still bound, per cent of control (MAP2K3 (human)) of 66% and a kinase still bound, per cent of control (CDK19 (human)) of 100%. The kinase still bound, per cent of control (SRPK3 (human)) was 11%, the kinase still bound, per cent of control (ULK1 (human)) was 31% and the kinase still bound, per cent of control (STK25 (human)) was 61%. The kinase still bound, per cent of control (CRK2 (P.falciparum)) was 100%, the kinase still bound, per cent of control (MAP3K15 (human)) was 83% and the kinase still bound, per cent of control (RPS6KA5 KD2 (human)) was 93%. The kinase still bound, per cent of control (PDPK1 (human)) was 82%, the kinase still bound, per cent of control (RIPK2 (human)) was 0% and the kinase still bound, per cent of control (SRMS (human)) was 8.6%. For the same compound, the kinase still bound, per cent of control (WEE1 (human)) was 85%, the kinase still bound, per cent of control (PKN2 (human)) was 19% and the kinase still bound, per cent of control (SRPK2 (human)) was 42%. It also gave a kinase still bound, per cent of control [2] of 85%, a kinase still bound, per cent of control [3] of 14% and a kinase still bound, per cent of control (NEK3 (human)) of 100%. It also gave a kinase still bound, per cent of control (LCK (human)) of 0.1%.
